Experiments:
human HIF-PHD2 = target: T1, human HIF-PHD2 (Homo sapiens, UniProt Q9GZT9); assay: HIF-PHD2 inhibition: hydroxylation of HIF-1α peptide, time resolved fluorescence; type: biochemical; settings: FLAG-tagged full length PHD2; 0.2 μM 2-oxoglutarate, 0.5 μM HIF-1α peptide
T1 construct: FLAG-tagged full length PHD2 expressed in and purified from baculovirus-infected Sf9 cells; FLAG; made in house; host or cells: baculovirus-infected Sf9 cells
Description: To each well of a 384-well plate, 1 μL of test compounds in DMSO (final concentration ranging from 0.3 nM to 10 μM) were added into 20 μl of assay buffer (50 mM Tris pH 7.4/0.01% Tween-20/0.1 mg/ml bovine serum albumin/10 μM ferrous sulfate/1 mM sodium ascorbate/20 μg/ml catalase) containing 0.15 μg/ml FLAG-tagged full length PHD2 expressed in and purified from baculovirus-infected Sf9 cells. After a 5 min preincubation at room temperature, the enzymatic reactions were initiated by the addition of 4 μL of substrates {final concentrations of 0.2 μM 2-oxoglutarate and 0.5 μM HIF-1α peptide biotinyl-DLDLEMLAPYIPMDDDFQL (SEQ ID NO: 1)}. After incubation for 45 minutes at room temperature, the reactions were terminated by the addition of a 25 μL quench/detection mix to a final concentration of 1 mM ortho-phenanthroline, 0.1 mM EDTA, 0.5 nM anti-(His)6 LANCE reagent (Perkin-Elmer Life Sciences), 100 nM AF647-labeled streptavidin (Invitrogen), and 2 μg/ml (His)6-VHL complex {S. Tan Protein Expr. Purif. 21, 224-234 (2001)} and the signals were developed for 30 minutes at room temperature. The ratio of time resolved fluorescence signals at 665 and 620 nm was determined, and percent inhibition was calculated relative to the high control samples (DMSO treated) run in parallel, after background subtraction.

[1] = Pharmacokinetics (half life) in rat after intravenous administration; type: in vivo; settings: plasma, male Wistar Han rats; for half-life: male, Wistar Han, rat, iv, 0.5 mg/kg, read-out: Half Life (t1/2) (converted)
Description: The half life of compounds described in this application were evaluated in rat. Shown in Table 9 are T½ of selected examples in rat (Wister Han) for selected compounds of the present invention. In addition Table 9 includes half life data for compounds disclosed in International Patent Application published as WO 2013/043621.
The pharmacokinetics of the compounds disclosed in Table 9 were studied in male Wistar Han rats after intravenous (IV) administration. For IV dosing at 0.5 mg/kg in rat, compounds were formulated as a solution in DMSO/PEG400/water (20/60/20, by vol.). Plasma samples obtained from dosed animals were prepared for analysis by means of a single step protein precipitation technique by adding 200 μL of acetonitrile to 50 μL aliquots of individual subject samples. Samples were mixed by vortex for homogeneity and then subjected to centrifugation at 3500 rpm for 10 min. The supernatant (200 μL) was collected and injected into the LC-MS/MS for analysis. Pharmacokinetic parameters were calculated using established non-compartmental methods.

T1 sequence (Q9GZT9 whole entry): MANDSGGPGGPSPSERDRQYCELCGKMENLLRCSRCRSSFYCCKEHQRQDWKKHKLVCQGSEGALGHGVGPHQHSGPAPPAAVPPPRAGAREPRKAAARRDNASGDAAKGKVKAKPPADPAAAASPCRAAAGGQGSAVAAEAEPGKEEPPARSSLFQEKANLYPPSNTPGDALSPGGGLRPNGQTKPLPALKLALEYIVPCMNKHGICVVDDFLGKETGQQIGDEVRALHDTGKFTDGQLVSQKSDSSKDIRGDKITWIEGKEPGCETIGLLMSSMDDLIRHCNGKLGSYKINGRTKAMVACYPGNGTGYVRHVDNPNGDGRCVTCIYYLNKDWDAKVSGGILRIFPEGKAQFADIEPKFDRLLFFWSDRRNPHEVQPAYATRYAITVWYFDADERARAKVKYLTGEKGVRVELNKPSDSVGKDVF

Row | SMILES | IC50 (human HIF-PHD2) [nM] | half-life [1] [h] | Half Life (t1/2) ([1]; IV 0.5 mg/kg) [h]
1 | CC(NC(=O)c1cnc(C(=O)NCCC(=O)O)nc1O)c1ccc(-c2ccc(F)cc2)cc1 (racemic) [Example 44, 3-(5-((1-(4′-fluoro-[1,1′-biphenyl]-4-yl)ethyl)carbamoyl)-4-hydroxypyrimidine-2-carboxamido)propanoic acid] | 2.5 | 0.69 | –
2 | C[C@@H](CNC(=O)c1ncc(C(=O)NC(c2ccccc2)c2ccccc2)c(O)n1)C(=O)O (single isomer, unassigned) [Example 1] | 2.3 | 1.9 | –
3 | C[C@H](CNC(=O)c1ncc(C(=O)NC(c2ccccc2)c2ccccc2)c(O)n1)C(=O)O (single isomer, unassigned) [Example 2] | 1.7 | 1.45 | –
4 | COc1ccc(C(NC(=O)c2cnc(C(=O)NCC(C)C(=O)O)nc2O)c2ccc3cc(OC)ccc3n2)cc1 (single isomer, unassigned) [Example 14, (R) or (S)-3-(4-hydroxy-5-(((4-methoxyphenyl)(6-methoxyquinolin-2-yl)methyl)carbamoyl)pyrimidine-2-carboxamido)-2-methylpropanoic acid] | 16 | 1.36 | –
5 | COc1ccc(C(NC(=O)c2cnc(C(=O)NCC(C)C(=O)O)nc2O)c2ccc(OC)cc2)cc1 (single isomer, unassigned) [Example 15, (R) or (S)-3-(5-((bis(4-methoxyphenyl)methy)carbamoyl)-4-hydroxypyrimidine-2-carboxamido)-2-methylpropanoic acid] | 10 | 0.99 | –
6 | CC(CNC(=O)c1ncc(C(=O)NC2(c3ccc(Br)cc3)CC2)c(O)n1)C(=O)O (single isomer, unassigned) [Example 16, (R) or (S)-3-(5-((1-(4-bromophenyl)cyclopropyl)carbamoyl)-4-hydroxypyrimidine-2-carboxamido)-2-methylpropanoic acid] | 1.3 | 0.88 | –
7 | CC(CNC(=O)c1ncc(C(=O)NC2(c3ccc(Br)cc3)CC2)c(O)n1)C(=O)O (single isomer, unassigned) [Example 17, (R) or (S)-3-(5-((1-(4-bromophenyl)cyclopropyl)carbamoyl)-4-hydroxypyrimidine-2-carboxamido)-2-methylpropanoic acid] | 0.8 | – | 1.36
8 | O=C(O)CCNC(=O)c1ncc(C(=O)NC(c2ccccc2)c2ccccc2)c(O)n1 [Example 2-11 from WO2013/040789, reference compound] | – | 0.28 | –
9 | O=C(O)CNC(=O)c1ncc(C(=O)NC(c2ccccc2)c2ccccc2)c(O)n1 [Example 2-12 from WO2013/040789, reference compound] | – | 0.56 | –
10 | O=C(O)c1cc(-c2ncc(C(=O)NC(c3ccccc3)c3ccccc3)c(O)n2)no1 [Example 2-16 from WO2013/040789, reference compound] | – | 0.3 | –
11 | O=C(NCC1(C(=O)O)CC1)c1ncc(C(=O)NC(c2ccccc2)c2ccccc2)c(O)n1 [Example 4, 1-((5-(benzhydrylcarbamoyl)-4-hydroxypyrimidine-2-carboxamido)methyl)cyclopropanecarboxylic acid] | 8.5 | 4.78 | –
12 | O=C(N[C@@H](Cc1c[nH]c2ccccc12)C(=O)O)c1ncc(C(=O)NC(c2ccccc2)c2ccccc2)c(O)n1 [Example 6, (2S)-2-(5-(benzhydrylcarbamoyl)-4-hydroxypyrimidine-2-carboxamido)-3-(3aH-indo1-3-yl)propanoic acid] | 8.9 | 1.68 | –
13 | O=C(NC[C@H](O)C(=O)O)c1ncc(C(=O)NC(c2ccccc2)c2ccccc2)c(O)n1 [Example 7, (S)-3-(5-(benzhydrylcarbamoyl)-4-hydroxypyrimidine-2-carboxamido)-2-hydroxypropanoic acid] | 1.4 | 1.02 | –
14 | COc1ccc([C@@H](NC(=O)c2cnc(C(=O)NCCC(=O)O)nc2O)c2ccccc2)cc1 [Example 36] | 2.7 | 6.76 | –
15 | COc1ccc([C@H](NC(=O)c2cnc(C(=O)NCCC(=O)O)nc2O)c2ccccc2)cc1 [Example 37] | 2.4 | 0.69 | –
16 | COc1ccc(C(NC(=O)c2cnc(C(=O)NCCC(=O)O)nc2O)c2ccc3c(c2)CCO3)cc1 (stereo not shown) [Example 39, 3-(5-(((2,3-dihydrobenzofuran-5-yl)(4-methoxyphenyl)methyl)carbamoyl)-4-hydroxypyrimidine-2-carboxamido)propanoic acid] | 1.7 | 1.59 | –
17 | COc1ccc(C(NC(=O)c2cnc(C(=O)NCCC(=O)O)nc2O)c2ccc(OC)nc2)cn1 [Example 41, 3-(5-((bis(6-methoxypyridin-3-yl)methyl)carbamoyl)-4-hydroxypyrimidine-2-carboxamido)propanoic acid] | 0.8 | – | –
18 | O=C(O)CCNC(=O)c1ncc(C(=O)NC(c2ccc(Cl)cc2)c2ccc(Cl)cc2)c(O)n1 [Example 42, 3-(5-((bis(4-chlorophenyl)methyl)carbamoyl)-4-hydroxypyrimidine-2-carboxamido)propanoic acid] | 0.5 | – | –
19 | O=C(O)CCNC(=O)c1ncc(C(=O)NC2(c3ccc(Br)cc3)CC2)c(O)n1 [Example 45, 3-(5-((1-(4-bromophenyl)cyclopropyl)carbamoyl)-4-hydroxypyrimidine-2-carboxamido)propanoic acid] | 0.4 | 0.62 | –
20 | CC(NC(=O)c1cnc(C(=O)NCCC(=O)O)nc1O)c1ccc(Oc2ccccc2)cc1 (stereo not shown) [Example 46, 3-(4-hydroxy-5-((1-(4-phenoxyphenyl)ethyl)carbamoyl)pyrimidine-2-carboxamido)propanoic acid] | 1 | – | –
21 | O=C(O)CCNC(=O)c1ncc(C(=O)NC(c2ccc(Br)cc2)C(F)(F)F)c(O)n1 (stereo not shown) [Example 47, 3-(5-((1-(4-bromophenyl)-2,2,2-trifluoroethyl)carbamoyl)-4-hydroxypyrimidine-2-carboxamido)propanoic acid] | 1.1 | – | –
22 | COc1ccc(C(NC(=O)c2cnc(C(=O)NCCC(=O)O)nc2O)c2ccc(OC)cc2)cc1 [Example 48, 3-(5-((bis(4-methoxyphenyl)methyl)carbamoyl)-4-hydroxypyrimidine-2-carboxamido)propanoic acid] | 0.7 | – | –
23 | O=C(O)CCNC(=O)c1ncc(C(=O)NC(c2ccccc2)c2ccc(C(F)(F)F)cc2)c(O)n1 (stereo not shown) [Example 49, 3-(4-hydroxy-5-((phenyl(4-(trifluoromethyl)phenyl)methyl)carbamoyl)pyrimidine-2-carboxamido)propanoic acid] | 1 | – | –

Reference: patent publication US20170247336A1 (MERCK SHARP & DOHME CORP., priority 2014, published 2017)
